pIC50, pKi: −log10 of the molar value.

The term pIC50 denotes −log10 of the IC50, conventionally taken in molar units. Usually pKi stands for −log10 of the Ki, conventionally taken in molar units.

A short description of experiment [1]: DRUGMATRIX: beta-Lactamase enzyme inhibition (substrate: Nitrocefin). As to conditions: Not Active = under 50% inhibition at 10 µM. Also on record: species or system Bacillus cereus.
The target in experiment [2] is 5-hydroxytryptamine receptor 4 (Cavia porcellus, UniProt O70528). Format: cell membranes, Dunkin-Hartley, Striatum, Membrane. Note: in other assays of this panel Not Active means under 50% inhibition at 10 µM.
Chain of 5-hydroxytryptamine receptor 4 (O70528 whole entry): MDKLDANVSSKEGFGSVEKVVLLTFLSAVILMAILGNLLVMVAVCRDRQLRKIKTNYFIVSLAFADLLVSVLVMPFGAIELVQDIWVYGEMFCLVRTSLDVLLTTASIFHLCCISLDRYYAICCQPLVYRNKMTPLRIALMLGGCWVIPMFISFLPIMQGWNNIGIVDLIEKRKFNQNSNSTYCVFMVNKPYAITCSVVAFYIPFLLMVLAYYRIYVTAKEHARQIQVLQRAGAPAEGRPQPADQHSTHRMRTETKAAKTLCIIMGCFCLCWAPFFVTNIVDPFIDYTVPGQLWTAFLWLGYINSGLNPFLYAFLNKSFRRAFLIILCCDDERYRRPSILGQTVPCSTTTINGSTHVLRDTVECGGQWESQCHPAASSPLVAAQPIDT
Experiment [3] deals with 5-hydroxytryptamine receptor 6 (Homo sapiens, UniProt P50406). The experiment is classed as cell membranes, HeLa, Membrane. The conditions noted are these: for IC50: hela.
Chain of 5-hydroxytryptamine receptor 6 (P50406 whole entry): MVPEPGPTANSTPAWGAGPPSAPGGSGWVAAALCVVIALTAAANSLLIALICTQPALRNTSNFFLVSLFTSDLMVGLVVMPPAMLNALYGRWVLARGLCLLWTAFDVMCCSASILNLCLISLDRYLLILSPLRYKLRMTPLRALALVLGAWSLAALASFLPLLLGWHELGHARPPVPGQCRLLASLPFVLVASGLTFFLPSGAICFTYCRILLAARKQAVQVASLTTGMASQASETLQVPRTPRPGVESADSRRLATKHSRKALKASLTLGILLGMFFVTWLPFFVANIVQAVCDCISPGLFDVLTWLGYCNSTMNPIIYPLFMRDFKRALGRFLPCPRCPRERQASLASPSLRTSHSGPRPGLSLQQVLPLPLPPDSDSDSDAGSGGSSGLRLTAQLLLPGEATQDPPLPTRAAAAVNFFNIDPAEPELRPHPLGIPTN
The target in experiment [4] is T1, Cholecystokinin receptor type A (Homo sapiens, UniProt P32238). Note: in other assays of this panel Not Active means under 50% inhibition at 10 µM.
T1 sequence (P32238 whole entry): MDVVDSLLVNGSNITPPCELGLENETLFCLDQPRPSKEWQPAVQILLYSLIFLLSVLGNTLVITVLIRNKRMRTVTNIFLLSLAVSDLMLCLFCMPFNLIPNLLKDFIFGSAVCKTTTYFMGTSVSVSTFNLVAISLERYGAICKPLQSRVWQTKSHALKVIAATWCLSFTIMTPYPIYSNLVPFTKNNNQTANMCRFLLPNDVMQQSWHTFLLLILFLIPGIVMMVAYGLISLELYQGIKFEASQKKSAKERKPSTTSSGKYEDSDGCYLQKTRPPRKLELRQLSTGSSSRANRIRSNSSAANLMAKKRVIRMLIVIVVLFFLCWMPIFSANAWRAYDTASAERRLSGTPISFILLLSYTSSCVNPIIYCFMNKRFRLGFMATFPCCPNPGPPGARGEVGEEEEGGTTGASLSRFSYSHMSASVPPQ
Format: cell membranes, Membrane. The conditions noted are these: 1321-n1.

The target in experiment [5] is T2, 3-hydroxy-3-methylglutaryl-coenzyme A reductase (Homo sapiens, UniProt P04035).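 Note: enzyme inhibition assay of HMG-CoA reductase using radiolabeled [14C]HMG-CoA as substrate; in other assays of this panel Not Active means under 50% inhibition at 10 µM.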
T2 sequence (P04035 whole entry): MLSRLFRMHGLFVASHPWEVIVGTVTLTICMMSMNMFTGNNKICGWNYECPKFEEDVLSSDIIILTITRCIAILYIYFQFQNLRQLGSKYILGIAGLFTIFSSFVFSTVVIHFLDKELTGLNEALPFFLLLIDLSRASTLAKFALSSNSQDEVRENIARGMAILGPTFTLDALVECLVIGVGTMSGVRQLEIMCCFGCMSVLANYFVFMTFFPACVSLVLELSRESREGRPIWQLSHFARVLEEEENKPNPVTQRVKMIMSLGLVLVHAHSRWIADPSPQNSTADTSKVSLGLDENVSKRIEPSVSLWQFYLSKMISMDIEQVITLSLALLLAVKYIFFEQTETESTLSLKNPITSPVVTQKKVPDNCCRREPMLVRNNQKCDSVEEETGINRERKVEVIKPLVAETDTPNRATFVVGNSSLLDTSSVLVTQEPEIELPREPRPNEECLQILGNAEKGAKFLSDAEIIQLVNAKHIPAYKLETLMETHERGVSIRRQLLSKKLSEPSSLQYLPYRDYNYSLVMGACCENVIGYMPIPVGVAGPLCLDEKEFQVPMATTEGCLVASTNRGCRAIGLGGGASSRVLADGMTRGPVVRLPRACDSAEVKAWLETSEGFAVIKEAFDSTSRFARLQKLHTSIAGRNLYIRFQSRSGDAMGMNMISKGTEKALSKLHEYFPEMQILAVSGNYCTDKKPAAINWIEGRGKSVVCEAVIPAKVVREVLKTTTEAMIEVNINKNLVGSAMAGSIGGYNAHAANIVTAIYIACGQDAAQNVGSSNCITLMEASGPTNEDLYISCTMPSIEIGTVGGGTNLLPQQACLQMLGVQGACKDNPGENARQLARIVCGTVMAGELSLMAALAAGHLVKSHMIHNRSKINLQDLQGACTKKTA
Also on record: species or system Escherichia coli.

For experiment [6], the target named is T3, Amine oxidase [flavin-containing] A (Homo sapiens, UniProt P21397).
T3 sequence (P21397 whole entry): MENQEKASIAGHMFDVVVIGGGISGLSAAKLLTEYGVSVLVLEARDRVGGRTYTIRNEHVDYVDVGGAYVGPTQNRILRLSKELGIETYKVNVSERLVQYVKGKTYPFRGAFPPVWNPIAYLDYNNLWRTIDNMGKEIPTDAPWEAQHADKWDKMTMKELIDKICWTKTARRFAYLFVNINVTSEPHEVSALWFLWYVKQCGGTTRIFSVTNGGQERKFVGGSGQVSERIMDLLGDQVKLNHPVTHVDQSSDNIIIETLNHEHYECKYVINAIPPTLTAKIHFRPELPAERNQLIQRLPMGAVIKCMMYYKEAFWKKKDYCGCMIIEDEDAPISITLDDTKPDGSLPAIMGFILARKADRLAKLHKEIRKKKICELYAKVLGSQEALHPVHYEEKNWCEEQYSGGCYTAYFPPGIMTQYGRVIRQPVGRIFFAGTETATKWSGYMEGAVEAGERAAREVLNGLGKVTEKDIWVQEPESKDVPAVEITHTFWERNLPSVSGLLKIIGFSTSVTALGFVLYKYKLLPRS
Briefly: DRUGMATRIX: Monoamine Oxidase MAO-A enzyme inhibition (substrate: Kynuramine). Also on record: species or system BTI-TN-5B1-4. The conditions noted are these: bti-tn-5b1-4; Not Active = under 50% inhibition at 10 µM.

Experiment [7] has as its target Delta-type opioid receptor (Homo sapiens, UniProt P41143). The experiment is classed as cell membranes, HEK293, Membrane. The conditions noted are these: hek293. Note: in other assays of this panel Not Active means under 50% inhibition at 10 µM.
The target in another experiment is Mu-type opioid receptor (Homo sapiens, UniProt P35372). In words: DRUGMATRIX: Opiate mu (OP3, MOP) radioligand binding (ligand: [3H] Diprenorphine). Format: cell membranes, CHO-K1, Membrane. As to conditions: cho-k1; Not Active = under 50% inhibition at 10 µM.
Chain of Mu-type opioid receptor (P35372 whole entry): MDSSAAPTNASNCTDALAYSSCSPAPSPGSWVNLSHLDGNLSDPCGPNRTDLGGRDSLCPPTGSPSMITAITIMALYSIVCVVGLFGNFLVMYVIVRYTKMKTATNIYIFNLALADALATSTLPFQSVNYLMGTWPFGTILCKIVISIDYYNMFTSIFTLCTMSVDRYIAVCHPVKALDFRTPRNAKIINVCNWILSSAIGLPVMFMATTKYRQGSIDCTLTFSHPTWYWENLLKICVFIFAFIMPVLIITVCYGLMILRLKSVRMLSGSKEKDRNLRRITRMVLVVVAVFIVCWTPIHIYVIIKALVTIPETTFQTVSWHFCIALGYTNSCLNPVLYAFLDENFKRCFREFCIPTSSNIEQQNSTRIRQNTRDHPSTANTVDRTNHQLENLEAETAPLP
Experiment [8] concerns the target Matrix metalloproteinase-9 (Homo sapiens, UniProt P14780). The experiment is classed as cell-based.
Experiment [9] has as its target Tyrosine-protein kinase Fyn (Homo sapiens, UniProt P06241). Briefly: biochemical. The experiment is classed as cell-based, Insect cells. The conditions noted are these: for IC50: insect cells.
Experiment [10] has as its target Receptor tyrosine-protein kinase erbB-2 (Homo sapiens, UniProt P04626). In words: biochemical. The conditions noted are these: for IC50: insect cells. Format: cell-based, Insect cells.
A further experiment concerns the target T4, Adenosine receptor A1 (Homo sapiens, UniProt P30542).
T4 sequence (P30542 whole entry): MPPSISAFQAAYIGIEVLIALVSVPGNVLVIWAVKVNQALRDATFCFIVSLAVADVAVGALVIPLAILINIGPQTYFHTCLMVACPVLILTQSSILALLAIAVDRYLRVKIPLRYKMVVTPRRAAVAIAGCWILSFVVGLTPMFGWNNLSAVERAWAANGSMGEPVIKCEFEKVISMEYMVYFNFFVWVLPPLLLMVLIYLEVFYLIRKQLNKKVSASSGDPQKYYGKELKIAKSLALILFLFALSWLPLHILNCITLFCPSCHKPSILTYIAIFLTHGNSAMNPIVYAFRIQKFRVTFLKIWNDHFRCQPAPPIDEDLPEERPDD
Format: cell membranes, CHO, Membrane. The conditions noted are these: cho.

Chain of Delta-type opioid receptor (P41143 whole entry): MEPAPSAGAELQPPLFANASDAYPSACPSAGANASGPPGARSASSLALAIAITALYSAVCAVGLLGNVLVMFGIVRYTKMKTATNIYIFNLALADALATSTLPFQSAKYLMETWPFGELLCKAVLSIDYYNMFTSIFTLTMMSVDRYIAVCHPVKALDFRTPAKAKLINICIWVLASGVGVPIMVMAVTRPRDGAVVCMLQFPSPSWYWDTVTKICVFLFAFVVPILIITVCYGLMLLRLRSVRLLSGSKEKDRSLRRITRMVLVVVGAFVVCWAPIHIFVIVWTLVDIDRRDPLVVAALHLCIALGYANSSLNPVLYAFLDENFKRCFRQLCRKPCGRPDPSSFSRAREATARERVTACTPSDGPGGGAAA
Chain of Matrix metalloproteinase-9 (P14780 whole entry): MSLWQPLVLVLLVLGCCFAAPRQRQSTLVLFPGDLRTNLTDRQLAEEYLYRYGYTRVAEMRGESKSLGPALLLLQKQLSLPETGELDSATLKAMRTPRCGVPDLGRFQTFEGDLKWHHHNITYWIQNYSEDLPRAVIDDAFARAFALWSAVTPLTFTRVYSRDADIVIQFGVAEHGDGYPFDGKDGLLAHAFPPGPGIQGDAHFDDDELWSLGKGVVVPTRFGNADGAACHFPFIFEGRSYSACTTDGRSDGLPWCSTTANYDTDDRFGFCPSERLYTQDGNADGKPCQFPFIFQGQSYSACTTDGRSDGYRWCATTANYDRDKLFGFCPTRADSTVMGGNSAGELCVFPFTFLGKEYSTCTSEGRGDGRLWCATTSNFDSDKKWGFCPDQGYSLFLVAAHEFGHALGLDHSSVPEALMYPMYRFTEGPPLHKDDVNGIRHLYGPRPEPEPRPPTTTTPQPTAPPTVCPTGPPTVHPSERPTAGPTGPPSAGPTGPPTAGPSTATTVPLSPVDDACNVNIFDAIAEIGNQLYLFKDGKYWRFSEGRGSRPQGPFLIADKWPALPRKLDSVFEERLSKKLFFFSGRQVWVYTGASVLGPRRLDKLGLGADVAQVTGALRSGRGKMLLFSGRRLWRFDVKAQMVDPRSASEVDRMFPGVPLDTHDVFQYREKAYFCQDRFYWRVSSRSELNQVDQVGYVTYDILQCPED
Chain of Receptor tyrosine-protein kinase erbB-2 (P04626 whole entry): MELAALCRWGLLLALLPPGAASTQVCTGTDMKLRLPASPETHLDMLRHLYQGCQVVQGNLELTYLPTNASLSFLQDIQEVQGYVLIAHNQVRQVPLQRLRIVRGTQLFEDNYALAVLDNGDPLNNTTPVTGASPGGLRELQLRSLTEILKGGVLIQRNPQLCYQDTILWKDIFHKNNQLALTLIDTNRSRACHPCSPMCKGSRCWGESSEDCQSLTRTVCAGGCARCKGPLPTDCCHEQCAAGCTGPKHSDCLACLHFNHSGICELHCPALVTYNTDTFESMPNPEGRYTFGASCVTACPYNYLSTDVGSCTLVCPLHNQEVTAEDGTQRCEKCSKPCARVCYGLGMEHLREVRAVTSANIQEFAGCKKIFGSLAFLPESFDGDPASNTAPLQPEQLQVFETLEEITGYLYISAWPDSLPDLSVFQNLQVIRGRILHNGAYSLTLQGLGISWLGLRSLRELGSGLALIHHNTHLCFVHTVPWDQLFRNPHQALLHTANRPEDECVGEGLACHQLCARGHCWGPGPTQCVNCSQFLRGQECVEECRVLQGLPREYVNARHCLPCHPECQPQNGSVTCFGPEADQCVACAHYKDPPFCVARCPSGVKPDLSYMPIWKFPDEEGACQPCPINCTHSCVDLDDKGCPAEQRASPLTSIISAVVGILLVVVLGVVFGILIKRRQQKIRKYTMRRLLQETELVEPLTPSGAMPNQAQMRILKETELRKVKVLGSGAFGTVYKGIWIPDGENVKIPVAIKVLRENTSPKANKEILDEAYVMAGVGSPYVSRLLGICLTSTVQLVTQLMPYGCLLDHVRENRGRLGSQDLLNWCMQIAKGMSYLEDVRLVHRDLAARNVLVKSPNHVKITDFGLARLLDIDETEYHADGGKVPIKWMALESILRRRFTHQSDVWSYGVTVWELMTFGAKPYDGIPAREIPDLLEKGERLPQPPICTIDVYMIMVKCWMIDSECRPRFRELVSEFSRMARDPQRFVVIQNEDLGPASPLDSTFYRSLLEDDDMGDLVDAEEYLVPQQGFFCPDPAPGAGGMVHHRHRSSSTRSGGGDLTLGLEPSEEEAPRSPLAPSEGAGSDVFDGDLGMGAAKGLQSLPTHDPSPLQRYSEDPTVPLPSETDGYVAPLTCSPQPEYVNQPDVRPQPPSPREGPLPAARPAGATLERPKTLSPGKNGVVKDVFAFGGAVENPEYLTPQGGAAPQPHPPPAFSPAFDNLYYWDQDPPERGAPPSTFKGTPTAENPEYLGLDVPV
Chain of Tyrosine-protein kinase Fyn (P06241 whole entry): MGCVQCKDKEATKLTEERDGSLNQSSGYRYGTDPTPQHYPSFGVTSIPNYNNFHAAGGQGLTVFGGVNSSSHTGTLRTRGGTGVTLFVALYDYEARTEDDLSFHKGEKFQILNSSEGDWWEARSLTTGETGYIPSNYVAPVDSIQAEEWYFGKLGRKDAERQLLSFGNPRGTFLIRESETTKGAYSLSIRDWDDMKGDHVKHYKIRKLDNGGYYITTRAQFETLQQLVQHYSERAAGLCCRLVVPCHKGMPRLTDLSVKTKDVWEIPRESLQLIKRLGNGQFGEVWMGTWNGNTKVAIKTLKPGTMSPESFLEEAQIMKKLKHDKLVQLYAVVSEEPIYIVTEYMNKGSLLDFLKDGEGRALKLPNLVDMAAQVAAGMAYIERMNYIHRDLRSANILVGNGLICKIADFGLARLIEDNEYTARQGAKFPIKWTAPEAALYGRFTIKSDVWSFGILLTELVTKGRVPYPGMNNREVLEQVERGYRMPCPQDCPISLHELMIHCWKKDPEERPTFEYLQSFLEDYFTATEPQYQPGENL

With `Nc1nnc(-c2cccc(Cl)c2Cl)c(N)n1` [LAMOTRIGINE], the IC50 result in [1], in experiment [2], in experiment [3], in [4], in experiment [5] and in experiment [6] was “Not Active” in each case. In addition, the IC50 entry (in [7]; at Mu-type opioid receptor; in [8]; in experiment [9]; in [10]; at Adenosine receptor A1) was “Not Active” in each case. In [1], the Ki entry is “Not Active”.

As to `CCC[C@@H]1C[C@@H](C(=O)N[C@@H]([C@H]2O[C@H](SC)[C@H](O)[C@@H](O)[C@H]2O)[C@@H](C)O)N(C)C1` [LINCOMYCIN], the IC50 result in [1], in experiment [2], in experiment [3], in [4], in [5] and in experiment [6] was “Not Active” in each case. The IC50 entry (in experiment [7]; on Mu-type opioid receptor; in experiment [8]; in experiment [9]; in experiment [10]; against Adenosine receptor A1) was “Not Active” each time. Besides, the Ki entry in [1] is given as “Not Active”.

`NCCCC[C@H](N[C@@H](CCc1ccccc1)C(=O)O)C(=O)N1CCC[C@H]1C(=O)O` [LISINOPRIL ANHYDROUS]: the IC50 result in [1], in experiment [2], in [3], in experiment [4], in experiment [5] and in experiment [6] was “Not Active” in each case. Besides, the IC50 result (in experiment [7]; at Mu-type opioid receptor; in [8]; in experiment [9]; in [10]; at Adenosine receptor A1) was “Not Active” throughout. Further, the Ki entry in experiment [1] is listed as “Not Active”.

For `COS(C)(=O)=O` [METHANESULFONIC ACID METHYL ESTER], the IC50 entry in [1], in experiment [2], in experiment [3], in experiment [4], in [5] and in experiment [6] was “Not Active” in each case. The IC50 result (in experiment [7]; at Mu-type opioid receptor; in [8]; in experiment [9]; in [10]; against Adenosine receptor A1) was “Not Active” throughout. For the same compound, the Ki entry in experiment [1] is given as “Not Active”.

Take `COC(=O)c1ccc(O)cc1` [METHYLPARABEN]: the IC50 entry in [1], in [2], in experiment [3], in experiment [4], in experiment [5] and in [6] was “Not Active” each time. Also, the IC50 entry (in experiment [7]; on Mu-type opioid receptor; in experiment [8]; in [9]; in [10]; against Adenosine receptor A1) was “Not Active” each time. In addition, in experiment [1], the Ki entry is recorded as “Not Active”.

In the case of `C[C@](N)(Cc1ccc(O)cc1)C(=O)O` [METYROSINE], the IC50 result in experiment [1], in experiment [2], in [3], in experiment [4], in [5] and in [6] was “Not Active” each time. Further, the IC50 result (in [7]; on Mu-type opioid receptor; in experiment [8]; in experiment [9]; in [10]; against Adenosine receptor A1) was “Not Active” in each case. The Ki result in [1] is reported as “Not Active”.

On to `Clc1ccc(C(c2ccccc2Cl)C(Cl)Cl)cc1` (stereo not given) [MITOTANE], for which the IC50 result in experiment [1], in experiment [2], in experiment [4], in [5], in experiment [6] and in [7] was “Not Active” each time. The IC50 result (on Mu-type opioid receptor; in [8]; in experiment [9]; in experiment [10]; against Adenosine receptor A1) was “Not Active” throughout. Also, the Ki result in [1] was “Not Active”. Also, the negative-log IC50 (pIC50) in experiment [3] (read-out: IC50) was 5.85. The pKi in experiment [3] (read-out: Ki) was 6.19.

With `O=C1c2c(O)ccc(O)c2C(=O)c2c(NCCNCCO)ccc(NCCNCCO)c21` [MITOXANTRONE], the IC50 entry in experiment [1], in experiment [2], in experiment [3], in experiment [4], in experiment [5] and in experiment [6] was “Not Active” in each case. Also, the IC50 entry (in experiment [7]; at Mu-type opioid receptor; in experiment [8]; against Adenosine receptor A1) was “Not Active” in each case. The Ki entry in [1] was “Not Active”. Moreover, the pIC50 in experiment [9] (read-out: IC50) was 5.90; in experiment [10] (read-out: IC50), 5.69.

Values taken from ChEMBL document CHEMBL1909046, “DrugMatrix in vitro pharmacology data”.
